Data set [1] in a line: refractive index (Na D-line) (dimensionless). Particulars: 298.15 K; 101.33 kPa; Liquid.
For data set [2] the following is noted: 298.15 K; 101 kPa; Liquid.
A short description of data set [3]: refractive index (Na D-line) (dimensionless); xn = mol fraction of the nth substance listed. The conditions noted are these: 298.15 K, 101 kPa, Liquid.
Data set [4] is described as follows: xn = mol fraction of the nth substance listed. Particulars: 298.15 K, 101 kPa, Liquid.

In the NIST ThermoML archive (doi:10.1021/je9008624) one finds refractive index and mass density data, which are given here for seven molecules.

SMILES strings stand for the structures. Numbers after ± are expanded uncertainties.

What is called refractive index is the speed of light in vacuum divided by its phase velocity in the sample. One may read the mass density as mass per unit of volume. In the case of `COC(=O)OC` [dimethyl carbonate], the refractive index in data set [1] amounted to 1.36647 ± 0.00064. The mass density in data set [2] worked out at 1063.28 ± 0.28 kg/m3.

Regarding `CCOS(=O)(=O)[O-].CCn1cc[n+](C)c1` [1-ethyl-3-methylimidazolium ethyl sulfate], the refractive index in data set [1] is reported as 1.47908 ± 0.00066. In addition, in data set [2], the mass density worked out at 1236.33 ± 0.8 kg/m3.

Consider `COC(=O)OC` [dimethyl carbonate] + CO, for which the refractive index turned out to be 1.33071 ± 0.00064 in data set [3] (x1 = 0.0501); 1.33427 ± 0.00064 in data set [3] (x1 = 0.0997); 1.34139 ± 0.00064 in data set [3] (x1 = 0.2008); 1.347 ± 0.00064 in data set [3] (x1 = 0.3003); 1.35162 ± 0.00064 in data set [3] (x1 = 0.4002); 1.35583 ± 0.00064 in data set [3] (x1 = 0.5005). Moreover, the refractive index in data set [3] (x1 = 0.6004) stood at 1.35891 ± 0.00064; in data set [3] (x1 = 0.7015), 1.36093 ± 0.00064; in data set [3] (x1 = 0.8012) it was 1.36336 ± 0.00064; in data set [3] (x1 = 0.8999), 1.36501 ± 0.00064; in data set [3] (x1 = 0.9483), 1.36566 ± 0.00064; in data set [3] (x1 = 1), 1.36647 ± 0.00064. The mass density in data set [4] (x1 = 0.0501) was found to be 814.35 ± 0.45 kg/m3; in data set [4] (x1 = 0.0997) it was 838.96 ± 0.41 kg/m3; in data set [4] (x1 = 0.2008), 882.51 ± 0.36 kg/m3; in data set [4] (x1 = 0.3003), 918.19 ± 0.31 kg/m3; in data set [4] (x1 = 0.4002), 948.52 ± 0.27 kg/m3; in data set [4] (x1 = 0.5005), 974.63 ± 0.24 kg/m3. In addition, the mass density in data set [4] (x1 = 0.6004) worked out at 997.16 ± 0.2 kg/m3; in data set [4] (x1 = 0.7015), 1017.04 ± 0.21 kg/m3; in data set [4] (x1 = 0.8012), 1034.29 ± 0.23 kg/m3; in data set [4] (x1 = 0.8999), 1049.44 ± 0.26 kg/m3; in data set [4] (x1 = 0.9483) it was 1056.31 ± 0.27 kg/m3; in data set [4] (x1 = 1), 1063.28 ± 0.28 kg/m3.

Take `CO` [methanol] + CCOS(=O)(=O)[O-].CCn1cc[n+](C)c1: the refractive index in data set [3] (x1 = 1) is recorded as 1.32668 ± 0.00064. In addition, the mass density in data set [4] (x1 = 1) turned out to be 786.72 ± 0.49 kg/m3.

Turning to `CO` [methanol] + COC(=O)OC, the refractive index in data set [3] (x2 = 0) is 1.32668 ± 0.00064. The mass density in data set [4] (x2 = 0) was determined as 786.72 ± 0.49 kg/m3.

Regarding `CO` [methanol], the refractive index in data set [1] is 1.32668 ± 0.00064. Moreover, in data set [2], the mass density was 786.72 ± 0.49 kg/m3.

In the case of `CCCCn1cc[n+](C)c1.F[B-](F)(F)F` [1-butyl-3-methylimidazolium tetrafluoroborate], the refractive index in data set [1] stood at 1.41831 ± 0.00066. For the same molecule, the mass density in data set [2] was found to be 1192.78 ± 0.71 kg/m3.
